Experiments:
[1] = target: Interleukin-1 receptor-associated kinase 3 (Homo sapiens) (UniProt Q9Y616); conditions: Compound concentration 1000.0 nM
[2] = target: Angiopoietin-1 receptor (Homo sapiens) (UniProt Q02763); conditions: Compound concentration 1000.0 nM
[3] = target: Platelet-derived growth factor receptor alpha (Homo sapiens) (UniProt P16234); conditions: Compound concentration 1000.0 nM
[4] = system: Proto-oncogene tyrosine-protein kinase receptor Ret (Homo sapiens), P07949 [V804M]; conditions: Compound concentration 1000.0 nM
[5] = target: Muscarinic acetylcholine receptor M4 (Homo sapiens) (UniProt P08173); conditions: Compound concentration 10.0 uM
[6] = target: Mitogen-activated protein kinase kinase kinase kinase 3 (Homo sapiens) (UniProt Q8IVH8); conditions: Compound concentration 1000.0 nM
[7] = target: T1, Muscarinic acetylcholine receptor M2 (Homo sapiens) (UniProt P08172); conditions: Compound concentration 10.0 uM
T1 sequence (whole entry): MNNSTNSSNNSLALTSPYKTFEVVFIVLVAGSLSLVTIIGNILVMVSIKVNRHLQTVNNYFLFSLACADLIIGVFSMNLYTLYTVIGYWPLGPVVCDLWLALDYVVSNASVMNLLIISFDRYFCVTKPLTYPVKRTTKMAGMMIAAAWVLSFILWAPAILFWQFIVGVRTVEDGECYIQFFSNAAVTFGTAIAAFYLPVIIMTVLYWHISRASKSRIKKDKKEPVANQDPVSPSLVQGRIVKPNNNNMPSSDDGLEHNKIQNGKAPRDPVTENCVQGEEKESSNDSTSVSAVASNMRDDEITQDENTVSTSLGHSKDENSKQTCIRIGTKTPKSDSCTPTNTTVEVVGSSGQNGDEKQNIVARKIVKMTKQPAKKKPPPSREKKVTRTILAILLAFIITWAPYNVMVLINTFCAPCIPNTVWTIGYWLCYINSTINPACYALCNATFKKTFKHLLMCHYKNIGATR

[8] = system: Tyrosine-protein kinase ABL1 (Homo sapiens), P00519 [F317L]; conditions: Compound concentration 1000.0 nM
[9] = target: Inhibitor of nuclear factor kappa-B kinase subunit beta (Homo sapiens) (UniProt O14920); conditions: Compound concentration 1000.0 nM
[10] = target: Phosphatidylinositol 4-phosphate 5-kinase type-1 alpha (Homo sapiens) (UniProt Q99755); conditions: Compound concentration 1000.0 nM
[11] = target: G protein-coupled receptor kinase 3 (Homo sapiens) (UniProt P35626); conditions: Compound concentration 1000.0 nM
[12] = target: Rho-associated protein kinase 1 (Homo sapiens) (UniProt Q13464); conditions: Compound concentration 1000.0 nM
[13] = target: Cyclin-dependent kinase-like 3 (Homo sapiens) (UniProt Q8IVW4); conditions: Compound concentration 1000.0 nM
[14] = target: Dual specificity protein kinase CLK2 (Homo sapiens) (UniProt P49760); conditions: Compound concentration 1000.0 nM
[15] = target: Serine/threonine-protein kinase Nek6 (Homo sapiens) (UniProt Q9HC98); conditions: Compound concentration 1000.0 nM
[16] = target: 5-hydroxytryptamine receptor 1E (Homo sapiens) (UniProt P28566); conditions: Compound concentration 10.0 uM
[17] = target: Phosphorylase b kinase gamma catalytic chain, skeletal muscle/heart isoform (Homo sapiens) (UniProt Q16816); conditions: Compound concentration 1000.0 nM
[18] = target: Serine/threonine-protein kinase Nek2 (Homo sapiens) (UniProt P51955); conditions: Compound concentration 1000.0 nM
[19] = target: Serine/threonine-protein kinase DCLK2 (Homo sapiens) (UniProt Q8N568); conditions: Compound concentration 1000.0 nM
[20] = target: Mu-type opioid receptor (Homo sapiens) (UniProt P35372); conditions: Compound concentration 10.0 uM
[21] = target: RAC-beta serine/threonine-protein kinase (Homo sapiens) (UniProt P31751); conditions: Compound concentration 1000.0 nM
[22] = target: Serine/threonine-protein kinase ULK1 (Homo sapiens) (UniProt O75385); conditions: Compound concentration 1000.0 nM
[23] = target: Histamine H4 receptor (Homo sapiens) (UniProt Q9H3N8); conditions: Compound concentration 10.0 uM
[24] = target: Ephrin type-A receptor 7 (Homo sapiens) (UniProt Q15375); conditions: Compound concentration 1000.0 nM
[25] = target: Serine/threonine-protein kinase tousled-like 1 (Homo sapiens) (UniProt Q9UKI8); conditions: Compound concentration 1000.0 nM
[26] = target: Phosphatidylinositol 5-phosphate 4-kinase type-2 beta (Homo sapiens) (UniProt P78356); conditions: Compound concentration 1000.0 nM
[27] = target: Death-associated protein kinase 3 (Homo sapiens) (UniProt O43293); conditions: Compound concentration 1000.0 nM
[28] = system: Mast/stem cell growth factor receptor Kit (Homo sapiens), P10721 [L576P]; conditions: Compound concentration 1000.0 nM
[29] = target: Serine/threonine-protein kinase mTOR (Homo sapiens) (UniProt P42345); conditions: Compound concentration 1000.0 nM
[30] = target: Serine/threonine-protein kinase Nek9 (Homo sapiens) (UniProt Q8TD19); conditions: Compound concentration 1000.0 nM
[31] = target: Calcium/calmodulin-dependent protein kinase type IV (Homo sapiens) (UniProt Q16566); conditions: Compound concentration 1000.0 nM
[32] = target: Mitogen-activated protein kinase 9 (Homo sapiens) (UniProt P45984); conditions: Compound concentration 1000.0 nM
[33] = target: Serine/threonine-protein kinase N1 (Homo sapiens) (UniProt Q16512); conditions: Compound concentration 1000.0 nM
[34] = target: Cyclin-dependent kinase 7 (Homo sapiens) (UniProt P50613); conditions: Compound concentration 1000.0 nM
[35] = target: Atypical kinase COQ8B, mitochondrial (Homo sapiens) (UniProt Q96D53); conditions: Compound concentration 1000.0 nM
[36] = system: Epidermal growth factor receptor (Homo sapiens), P00533 [L858R]; conditions: Compound concentration 1000.0 nM
[37] = target: Myosin-IIIb (Homo sapiens) (UniProt Q8WXR4); conditions: Compound concentration 1000.0 nM
[38] = target: Serine/threonine-protein kinase Nek11 (Homo sapiens) (UniProt Q8NG66); conditions: Compound concentration 1000.0 nM
[39] = system: Mast/stem cell growth factor receptor Kit (Homo sapiens), P10721 [V559D,V654A]; conditions: Compound concentration 1000.0 nM

Chain of Serine/threonine-protein kinase DCLK2 (Homo sapiens) (Q8N568 whole entry): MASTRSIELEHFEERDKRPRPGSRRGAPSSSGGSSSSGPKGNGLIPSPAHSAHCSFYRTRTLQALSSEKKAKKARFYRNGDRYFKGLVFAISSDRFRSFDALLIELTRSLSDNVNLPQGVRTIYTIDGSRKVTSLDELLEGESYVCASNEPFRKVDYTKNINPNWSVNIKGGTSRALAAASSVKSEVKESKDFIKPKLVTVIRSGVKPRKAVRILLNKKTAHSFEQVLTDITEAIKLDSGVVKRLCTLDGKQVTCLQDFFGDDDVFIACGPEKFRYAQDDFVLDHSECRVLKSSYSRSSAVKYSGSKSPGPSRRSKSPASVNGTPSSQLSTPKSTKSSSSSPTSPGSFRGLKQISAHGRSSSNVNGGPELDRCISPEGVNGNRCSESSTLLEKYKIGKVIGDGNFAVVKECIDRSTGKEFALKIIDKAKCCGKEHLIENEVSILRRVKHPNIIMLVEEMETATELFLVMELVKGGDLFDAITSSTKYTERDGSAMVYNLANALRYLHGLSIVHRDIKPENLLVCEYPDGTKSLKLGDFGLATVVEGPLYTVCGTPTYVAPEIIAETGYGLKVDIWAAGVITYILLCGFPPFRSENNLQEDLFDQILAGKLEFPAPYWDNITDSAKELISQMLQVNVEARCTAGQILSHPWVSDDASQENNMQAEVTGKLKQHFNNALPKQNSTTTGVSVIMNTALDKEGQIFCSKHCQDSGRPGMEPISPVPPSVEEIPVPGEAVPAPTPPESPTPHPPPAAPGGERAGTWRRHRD
Chain of Serine/threonine-protein kinase Nek9 (Homo sapiens) (Q8TD19 whole entry): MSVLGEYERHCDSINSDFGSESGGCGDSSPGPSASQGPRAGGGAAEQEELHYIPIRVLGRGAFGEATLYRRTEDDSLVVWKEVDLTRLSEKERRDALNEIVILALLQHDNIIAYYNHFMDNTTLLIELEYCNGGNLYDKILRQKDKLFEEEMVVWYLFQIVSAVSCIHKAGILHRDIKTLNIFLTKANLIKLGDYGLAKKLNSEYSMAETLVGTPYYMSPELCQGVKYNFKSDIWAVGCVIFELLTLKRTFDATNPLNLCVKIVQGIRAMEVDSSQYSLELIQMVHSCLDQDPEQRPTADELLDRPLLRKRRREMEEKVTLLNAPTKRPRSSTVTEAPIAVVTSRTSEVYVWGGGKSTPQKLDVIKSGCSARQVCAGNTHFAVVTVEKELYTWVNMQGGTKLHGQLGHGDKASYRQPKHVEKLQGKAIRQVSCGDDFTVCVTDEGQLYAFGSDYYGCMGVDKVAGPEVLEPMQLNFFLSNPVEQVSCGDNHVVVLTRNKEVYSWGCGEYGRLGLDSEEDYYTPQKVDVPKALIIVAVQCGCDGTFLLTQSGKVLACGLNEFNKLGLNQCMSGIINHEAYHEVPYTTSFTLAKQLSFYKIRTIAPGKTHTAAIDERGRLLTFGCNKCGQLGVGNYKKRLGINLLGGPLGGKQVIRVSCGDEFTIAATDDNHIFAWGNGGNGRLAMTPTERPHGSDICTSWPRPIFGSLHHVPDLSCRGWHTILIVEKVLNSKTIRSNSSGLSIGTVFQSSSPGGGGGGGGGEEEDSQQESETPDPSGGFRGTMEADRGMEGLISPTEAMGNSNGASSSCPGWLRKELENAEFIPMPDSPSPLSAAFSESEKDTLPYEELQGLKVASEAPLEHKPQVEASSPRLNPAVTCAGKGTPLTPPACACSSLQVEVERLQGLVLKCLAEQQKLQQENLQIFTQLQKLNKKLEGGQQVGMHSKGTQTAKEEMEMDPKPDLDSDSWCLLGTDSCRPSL
Chain of Mitogen-activated protein kinase 9 (Homo sapiens) (P45984 whole entry, looked up): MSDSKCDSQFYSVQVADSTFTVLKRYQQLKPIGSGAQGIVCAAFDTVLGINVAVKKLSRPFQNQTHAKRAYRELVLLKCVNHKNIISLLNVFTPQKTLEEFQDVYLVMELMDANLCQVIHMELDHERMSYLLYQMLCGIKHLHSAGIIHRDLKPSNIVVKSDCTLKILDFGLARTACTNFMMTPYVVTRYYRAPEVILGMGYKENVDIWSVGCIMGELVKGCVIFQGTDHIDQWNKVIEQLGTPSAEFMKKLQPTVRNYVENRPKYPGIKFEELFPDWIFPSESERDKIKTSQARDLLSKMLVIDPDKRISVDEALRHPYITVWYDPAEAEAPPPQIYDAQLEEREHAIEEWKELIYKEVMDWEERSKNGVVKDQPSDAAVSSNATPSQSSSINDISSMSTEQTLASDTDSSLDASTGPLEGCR
Chain of G protein-coupled receptor kinase 3 (Homo sapiens) (P35626 whole entry): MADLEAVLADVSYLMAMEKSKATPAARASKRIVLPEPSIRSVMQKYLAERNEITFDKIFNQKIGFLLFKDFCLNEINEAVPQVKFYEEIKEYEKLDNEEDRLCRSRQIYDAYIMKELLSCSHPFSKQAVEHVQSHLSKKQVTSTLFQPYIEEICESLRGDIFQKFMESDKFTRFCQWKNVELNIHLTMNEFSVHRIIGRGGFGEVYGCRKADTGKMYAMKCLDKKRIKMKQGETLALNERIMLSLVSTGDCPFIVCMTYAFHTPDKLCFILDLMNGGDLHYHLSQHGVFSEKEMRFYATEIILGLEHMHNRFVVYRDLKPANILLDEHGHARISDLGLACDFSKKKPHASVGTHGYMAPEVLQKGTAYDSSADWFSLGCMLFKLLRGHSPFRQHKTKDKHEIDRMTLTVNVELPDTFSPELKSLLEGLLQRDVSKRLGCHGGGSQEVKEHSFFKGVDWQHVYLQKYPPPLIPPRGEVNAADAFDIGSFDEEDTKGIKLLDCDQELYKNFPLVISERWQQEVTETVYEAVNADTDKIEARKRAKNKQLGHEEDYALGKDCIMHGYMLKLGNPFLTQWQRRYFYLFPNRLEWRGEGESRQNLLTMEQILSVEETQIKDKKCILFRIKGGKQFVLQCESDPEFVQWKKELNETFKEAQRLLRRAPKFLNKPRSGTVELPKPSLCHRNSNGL
Chain of Rho-associated protein kinase 1 (Homo sapiens) (Q13464 2-1354 limits assumed): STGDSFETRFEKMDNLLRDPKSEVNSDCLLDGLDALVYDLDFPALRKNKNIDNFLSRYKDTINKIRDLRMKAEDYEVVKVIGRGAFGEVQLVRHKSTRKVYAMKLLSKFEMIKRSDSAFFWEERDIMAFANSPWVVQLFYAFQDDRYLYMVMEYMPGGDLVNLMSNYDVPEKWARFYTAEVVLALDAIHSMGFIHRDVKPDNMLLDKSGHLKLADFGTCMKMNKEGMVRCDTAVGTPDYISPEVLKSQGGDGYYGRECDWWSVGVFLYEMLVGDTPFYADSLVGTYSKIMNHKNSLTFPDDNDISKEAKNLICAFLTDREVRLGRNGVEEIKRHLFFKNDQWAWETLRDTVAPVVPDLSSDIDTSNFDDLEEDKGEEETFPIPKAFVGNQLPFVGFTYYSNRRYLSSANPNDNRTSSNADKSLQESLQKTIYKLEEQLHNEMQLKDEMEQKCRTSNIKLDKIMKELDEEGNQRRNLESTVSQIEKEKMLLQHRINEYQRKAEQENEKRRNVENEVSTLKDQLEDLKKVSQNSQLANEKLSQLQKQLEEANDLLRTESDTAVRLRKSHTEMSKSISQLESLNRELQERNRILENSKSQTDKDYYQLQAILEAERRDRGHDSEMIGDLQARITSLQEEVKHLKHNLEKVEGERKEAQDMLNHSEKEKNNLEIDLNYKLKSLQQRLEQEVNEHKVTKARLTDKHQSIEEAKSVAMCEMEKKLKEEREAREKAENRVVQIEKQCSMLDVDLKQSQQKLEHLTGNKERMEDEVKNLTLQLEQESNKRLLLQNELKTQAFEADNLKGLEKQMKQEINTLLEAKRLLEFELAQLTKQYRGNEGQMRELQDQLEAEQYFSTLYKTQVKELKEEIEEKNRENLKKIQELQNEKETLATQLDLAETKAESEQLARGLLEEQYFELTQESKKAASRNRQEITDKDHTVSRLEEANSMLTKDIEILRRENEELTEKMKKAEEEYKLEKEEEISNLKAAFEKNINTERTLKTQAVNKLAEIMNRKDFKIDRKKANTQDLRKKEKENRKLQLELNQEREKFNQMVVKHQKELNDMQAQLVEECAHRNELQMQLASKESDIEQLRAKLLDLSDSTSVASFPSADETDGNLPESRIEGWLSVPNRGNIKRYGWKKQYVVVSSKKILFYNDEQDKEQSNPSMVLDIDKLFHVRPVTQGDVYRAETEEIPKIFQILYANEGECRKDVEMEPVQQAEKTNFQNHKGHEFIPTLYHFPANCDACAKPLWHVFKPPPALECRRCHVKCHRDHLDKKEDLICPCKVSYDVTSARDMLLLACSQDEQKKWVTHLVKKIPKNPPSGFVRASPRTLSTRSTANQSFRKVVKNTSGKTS
Chain of Calcium/calmodulin-dependent protein kinase type IV (Homo sapiens) (Q16566 whole entry): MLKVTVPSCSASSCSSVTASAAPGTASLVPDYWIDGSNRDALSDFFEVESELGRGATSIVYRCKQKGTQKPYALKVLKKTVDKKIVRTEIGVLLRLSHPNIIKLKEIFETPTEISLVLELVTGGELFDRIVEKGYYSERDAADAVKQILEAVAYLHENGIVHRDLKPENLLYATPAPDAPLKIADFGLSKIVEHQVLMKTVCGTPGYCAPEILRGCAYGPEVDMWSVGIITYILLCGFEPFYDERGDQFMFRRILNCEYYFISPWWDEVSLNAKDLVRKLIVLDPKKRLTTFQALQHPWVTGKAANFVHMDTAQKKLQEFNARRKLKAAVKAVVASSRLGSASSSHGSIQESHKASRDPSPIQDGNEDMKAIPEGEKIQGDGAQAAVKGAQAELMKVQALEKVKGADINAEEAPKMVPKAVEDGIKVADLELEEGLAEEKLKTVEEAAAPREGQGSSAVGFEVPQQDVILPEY
Chain of Phosphorylase b kinase gamma catalytic chain, skeletal muscle/heart isoform (Homo sapiens) (Q16816 whole entry, looked up, canonical isoform): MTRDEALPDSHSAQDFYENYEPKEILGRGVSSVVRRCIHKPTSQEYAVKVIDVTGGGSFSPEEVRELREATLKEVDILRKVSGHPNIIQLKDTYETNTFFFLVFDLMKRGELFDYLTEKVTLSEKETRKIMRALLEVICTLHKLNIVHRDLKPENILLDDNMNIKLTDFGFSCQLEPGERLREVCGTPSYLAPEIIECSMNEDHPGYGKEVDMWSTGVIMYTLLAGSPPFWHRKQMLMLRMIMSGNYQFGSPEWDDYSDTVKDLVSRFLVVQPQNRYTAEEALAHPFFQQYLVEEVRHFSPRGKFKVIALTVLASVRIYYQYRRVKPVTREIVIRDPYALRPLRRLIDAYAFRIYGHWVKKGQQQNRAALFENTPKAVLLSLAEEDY

SMILES	residual activity [1]	residual activity [2]	residual activity [3]	residual activity [4]	inhibition [5]	residual activity [6]	inhibition [7]	residual activity [8]	residual activity [9]	residual activity [10]	residual activity [11]	residual activity [12]	residual activity [13]	residual activity [14]	residual activity [15]	inhibition [16]	residual activity [17]	residual activity [18]	residual activity [19]	inhibition [20]	also measured
Cc1nccc(COC(=O)N2C[C@@H]3[C@@H](CNC(=O)c4ccc5[nH]nnc5c4)[C@@H]3C2)n1 [BI 3017]	100%	90%	80%	100%	16.1%	66%	-5.6%	70%	96%	100%	70%	71%	99%	80%	100%	31.8%	100%	100%	100%	12.1%	residual activity [21]: 98%; residual activity [22]: 93%; inhibition [23]: 7.45%; residual activity [24]: 89%; residual activity [25]: 87%; residual activity [26]: 100%; residual activity [27]: 92%; residual activity [28]: 89%; residual activity [29]: 96%; residual activity [30]: 100%; residual activity [31]: 95%; residual activity [32]: 95%; residual activity [33]: 100%; residual activity [34]: 78%; residual activity [35]: 100%; residual activity [36]: 78%; residual activity [37]: 100%; residual activity [38]: 88%; residual activity [39]: 41%
O=C(NC[C@@H]1[C@H]2CN(C(=O)OCc3cc(C(F)(F)F)cc(C(F)(F)F)c3)C[C@@H]12)c1ccc2[nH]nnc2c1 [BI 2545]	84%	89%	97%	88%	14.2%	89%	7.11%	91%	88%	93%	90%	85%	87%	86%	100%	33.6%	92%	100%	100%	43%	residual activity [21]: 100%; residual activity [22]: 92%; inhibition [23]: 39.5%; residual activity [24]: 96%; residual activity [25]: 68%; residual activity [26]: 100%; residual activity [27]: 94%; residual activity [28]: 92%; residual activity [29]: 100%; residual activity [30]: 77%; residual activity [31]: 100%; residual activity [32]: 100%; residual activity [33]: 100%; residual activity [34]: 92%; residual activity [35]: 94%; residual activity [36]: 100%; residual activity [37]: 100%; residual activity [38]: 100%; residual activity [39]: 99%

— ChEMBL document CHEMBL4507275, “Data for DCP probe BI-2545” (2021)
